How the values were obtained:
Format in all cases: in vivo
[1] = system: barnyardgrass (Echinochloa crus-galli); experiment: Test A preemergence, barnyardgrass; conditions: 0 to 100 scale (0 no effect, 100 complete control)
Outline: (§1)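 Visual injury on a 0 to 100 scale, about 10 days post-spray in the greenhouse. Postemergence plants measured 2–10 cm at one to two leaves; preemergence pots received a directed soil spray. Soil was a loam–sand blend.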

kochia (Kochia scoparia) [2] = experiment: Test A preemergence, kochia; conditions: 0 to 100 scale (0 no effect, 100 complete control)
Outline: as §1

[3] = system: ragweed (common ragweed, Ambrosia elatior); experiment: Test A preemergence, ragweed; conditions: 0 to 100 scale (0 no effect, 100 complete control)
Outline: as §1

[4] = system: ryegrass, Italian (Lolium multiflorum); experiment: Test A preemergence, Italian ryegrass; conditions: 0 to 100 scale (0 no effect, 100 complete control)
Outline: as §1

[5] = system: foxtail, giant (Setaria faberii); experiment: Test A preemergence, giant foxtail; conditions: 0 to 100 scale (0 no effect, 100 complete control)
Outline: as §1

[6] = system: pigweed (Amaranthus retroflexus); experiment: Test A preemergence, pigweed; conditions: 0 to 100 scale (0 no effect, 100 complete control)
Outline: as §1

[7] = system: barnyardgrass (Echinochloa crus-galli); experiment: Test A postemergence, barnyardgrass; conditions: visual injury, 0 to 100 scale (0 no effect, 100 complete control), approximately 10 days
Outline: as §1

kochia (Kochia scoparia) [8] = experiment: Test A postemergence, kochia; conditions: visual injury, 0 to 100 scale (0 no effect, 100 complete control), approximately 10 days
Outline: as §1

[9] = system: ragweed (common ragweed, Ambrosia elatior); experiment: Test A postemergence, ragweed; conditions: visual injury, 0 to 100 scale (0 no effect, 100 complete control), approximately 10 days
Outline: as §1

[10] = system: ryegrass, Italian (Lolium multiflorum); experiment: Test A postemergence, Italian ryegrass; conditions: visual injury, 0 to 100 scale (0 no effect, 100 complete control), approximately 10 days
Outline: as §1

[11] = system: foxtail, giant (Setaria faberii); experiment: Test A postemergence, giant foxtail; conditions: visual injury, 0 to 100 scale (0 no effect, 100 complete control), approximately 10 days
Outline: as §1

[12] = system: pigweed (Amaranthus retroflexus); experiment: Test A postemergence, pigweed; conditions: visual injury, 0 to 100 scale (0 no effect, 100 complete control), approximately 10 days
Outline: as §1

[13] = system: blackgrass (Alopecurus myosuroides); experiment: Test A postemergence, blackgrass; conditions: visual injury, 0 to 100 scale (0 no effect, 100 complete control), approximately 10 days
Outline: as §1

[14] = system: galium (catchweed bedstraw, Galium aparine); experiment: Test A postemergence, galium; conditions: visual injury, 0 to 100 scale (0 no effect, 100 complete control), approximately 10 days
Outline: as §1

[15] = system: wheat (Triticum aestivum); experiment: Test A postemergence, wheat; conditions: visual injury, 0 to 100 scale (0 no effect, 100 complete control), approximately 10 days
Outline: as §1

corn (Zea mays) = experiment: Test A postemergence, corn; conditions: visual injury, 0 to 100 scale (0 no effect, 100 complete control), approximately 10 days
Outline: as §1

rice (Oryza sativa) = experiment: Test B flooded paddy test, rice; conditions: 250 g ai/ha, applied to paddy water, visual rating after 13 to 15 days, scale 0 (no effect) to 100 (complete control)
Outline: (§2)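 Pots were flooded to 3 cm above the soil surface at treatment, compound applied directly to the paddy water, and that depth held throughout. Plants were kept in a greenhouse for 13 to 15 days, then visually rated against untreated controls.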

[16] = system: sedge, umbrella (small-flower umbrella sedge, Cyperus difformis); experiment: Test B flooded paddy test, umbrella sedge; conditions: 250 g ai/ha, applied to paddy water, visual rating after 13 to 15 days, scale 0 (no effect) to 100 (complete control)
Outline: as §2

[17] = system: ducksalad (Heteranthera limosa); experiment: Test B flooded paddy test, ducksalad; conditions: 250 g ai/ha, applied to paddy water, visual rating after 13 to 15 days, scale 0 (no effect) to 100 (complete control)
Outline: as §2

[18] = system: barnyardgrass (Echinochloa crus-galli); experiment: Test B flooded paddy test, barnyardgrass; conditions: 250 g ai/ha, applied to paddy water, visual rating after 13 to 15 days, scale 0 (no effect) to 100 (complete control)
Outline: as §2

With `CC1(COc2cccc(C3CNC(=O)C3C(=O)Nc3ccccc3C(F)(F)F)c2)COC1` (stereo not drawn) [Compound 15] as the compound, how does the “Plant response rating, Barnyardgrass” value ([1]; 125 g ai/ha) read?
Its value is 0.

And the “Plant response rating, Barnyardgrass” value ([1]; 500 g ai/ha)?
The value was 60.

What about the “Plant response rating, Kochia” value (kochia (Kochia scoparia) [2]; 125 g ai/ha) of the same compound?
The value was 0.

And the “Plant response rating, Kochia” value (kochia (Kochia scoparia) [2]; 500 g ai/ha)?
The value was 0.

What about the “Plant response rating, Ragweed” value ([3]; 125 g ai/ha) of the same compound?
The value was 0.

And the “Plant response rating, Ragweed” value ([3]; 500 g ai/ha)?
The value was 0.

What about the “Plant response rating, Ryegrass, Italian” value ([4]; 125 g ai/ha) of the same compound?
The value was 0.

What about the “Plant response rating, Ryegrass, Italian” value ([4]; 500 g ai/ha) of the same compound?
The value was 0.

What about the “Plant response rating, Foxtail, Giant” value ([5]; 125 g ai/ha) of the same compound?
The value was 10.

And the “Plant response rating, Foxtail, Giant” value ([5]; 500 g ai/ha)?
The value was 40.

And the “Plant response rating, Pigweed” value ([6]; 125 g ai/ha)?
The value was 0.

And the “Plant response rating, Pigweed” value ([6]; 500 g ai/ha)?
Its value is 0.

What about the “Plant response rating, Barnyardgrass” value ([7]; 125 g ai/ha) of the same compound?
Its value is 0.

And the “Plant response rating, Barnyardgrass” value ([7]; 500 g ai/ha)?
The value was 0.

And the “Plant response rating, Kochia” value (kochia (Kochia scoparia) [8]; 125 g ai/ha)?
The value was 0.

And the “Plant response rating, Kochia” value (kochia (Kochia scoparia) [8]; 500 g ai/ha)?
Its value is 0.

And the “Plant response rating, Ragweed” value ([9]; 125 g ai/ha)?
Its value is 0.

And the “Plant response rating, Ragweed” value ([9]; 500 g ai/ha)?
Its value is 30.

What about the “Plant response rating, Ryegrass, Italian” value ([10]; 125 g ai/ha) of the same compound?
The value was 0.

What about the “Plant response rating, Ryegrass, Italian” value ([10]; 500 g ai/ha) of the same compound?
Its value is 0.

What about the “Plant response rating, Foxtail, Giant” value ([11]; 125 g ai/ha) of the same compound?
Its value is 10.

And the “Plant response rating, Foxtail, Giant” value ([11]; 500 g ai/ha)?
The value was 20.

And the “Plant response rating, Pigweed” value ([12]; 125 g ai/ha)?
Its value is 0.

What about the “Plant response rating, Pigweed” value ([12]; 500 g ai/ha) of the same compound?
The value was 0.

And the “Plant response rating, Blackgrass” value ([13]; 125 g ai/ha)?
Its value is 0.

What about the “Plant response rating, Blackgrass” value ([13]; 500 g ai/ha) of the same compound?
Its value is 0.

What about the “Plant response rating, Galium” value ([14]; 125 g ai/ha) of the same compound?
Its value is 0.

And the “Plant response rating, Galium” value ([14]; 500 g ai/ha)?
The value was 0.

What about the “Plant response rating, Wheat” value ([15]; 125 g ai/ha) of the same compound?
Its value is 0.

And the “Plant response rating, Wheat” value ([15]; 500 g ai/ha)?
Its value is 0.

What about the “Plant response rating, Corn” value (corn (Zea mays); 125 g ai/ha) of the same compound?
Its value is 0.

And the “Plant response rating, Corn” value (corn (Zea mays); 500 g ai/ha)?
The value was 0.

And the “Plant response rating, Rice (Flood)” value (rice (Oryza sativa))?
The value was 0.

And the “Plant response rating, Sedge, Umbrella (Flood)” value [16]?
Its value is 0.

What about the “Plant response rating, Ducksalad (Flood)” value [17] of the same compound?
The value was 50.

And the “Plant response rating, Barnyardgrass (Flood)” value [18]?
Its value is 0.

How did the “Plant response rating, Barnyardgrass” value ([1]; 125 g ai/ha) turn out when `CN1CC(c2cccc(Oc3ncc(F)cn3)c2)C(C(=O)Nc2cccc(F)c2F)C1=O` (single isomer, unassigned) [Compound 38] was run?
Its value is 90.

And the “Plant response rating, Barnyardgrass” value ([1]; 500 g ai/ha)?
The value was 100.

What about the “Plant response rating, Kochia” value (kochia (Kochia scoparia) [2]; 125 g ai/ha) of the same compound?
Its value is 30.

And the “Plant response rating, Kochia” value (kochia (Kochia scoparia) [2]; 500 g ai/ha)?
The value was 70.

And the “Plant response rating, Ragweed” value ([3]; 125 g ai/ha)?
Its value is 40.

What about the “Plant response rating, Ragweed” value ([3]; 500 g ai/ha) of the same compound?
Its value is 80.

And the “Plant response rating, Ryegrass, Italian” value ([4]; 125 g ai/ha)?
The value was 80.

And the “Plant response rating, Ryegrass, Italian” value ([4]; 500 g ai/ha)?
The value was 100.

What about the “Plant response rating, Foxtail, Giant” value ([5]; 125 g ai/ha) of the same compound?
Its value is 100.

What about the “Plant response rating, Foxtail, Giant” value ([5]; 500 g ai/ha) of the same compound?
Its value is 100.

What about the “Plant response rating, Pigweed” value ([6]; 125 g ai/ha) of the same compound?
Its value is 80.

And the “Plant response rating, Pigweed” value ([6]; 500 g ai/ha)?
Its value is 100.

What about the “Plant response rating, Barnyardgrass” value ([7]; 125 g ai/ha) of the same compound?
The value was 100.

And the “Plant response rating, Barnyardgrass” value ([7]; 500 g ai/ha)?
Its value is 100.

And the “Plant response rating, Kochia” value (kochia (Kochia scoparia) [8]; 125 g ai/ha)?
Its value is 30.

What about the “Plant response rating, Kochia” value (kochia (Kochia scoparia) [8]; 500 g ai/ha) of the same compound?
The value was 60.

What about the “Plant response rating, Ragweed” value ([9]; 125 g ai/ha) of the same compound?
Its value is 20.

And the “Plant response rating, Ragweed” value ([9]; 500 g ai/ha)?
Its value is 80.

What about the “Plant response rating, Ryegrass, Italian” value ([10]; 125 g ai/ha) of the same compound?
The value was 70.

What about the “Plant response rating, Ryegrass, Italian” value ([10]; 500 g ai/ha) of the same compound?
The value was 80.

What about the “Plant response rating, Foxtail, Giant” value ([11]; 125 g ai/ha) of the same compound?
Its value is 90.

And the “Plant response rating, Foxtail, Giant” value ([11]; 500 g ai/ha)?
Its value is 90.

What about the “Plant response rating, Pigweed” value ([12]; 125 g ai/ha) of the same compound?
The value was 50.

What about the “Plant response rating, Pigweed” value ([12]; 500 g ai/ha) of the same compound?
The value was 70.

What about the “Plant response rating, Blackgrass” value ([13]; 125 g ai/ha) of the same compound?
The value was 70.

And the “Plant response rating, Blackgrass” value ([13]; 500 g ai/ha)?
Its value is 70.

And the “Plant response rating, Galium” value ([14]; 125 g ai/ha)?
The value was 50.

And the “Plant response rating, Galium” value ([14]; 500 g ai/ha)?
The value was 70.

And the “Plant response rating, Wheat” value ([15]; 125 g ai/ha)?
Its value is 50.

And the “Plant response rating, Wheat” value ([15]; 500 g ai/ha)?
Its value is 70.

And the “Plant response rating, Corn” value (corn (Zea mays); 125 g ai/ha)?
Its value is 90.

What about the “Plant response rating, Corn” value (corn (Zea mays); 500 g ai/ha) of the same compound?
Its value is 100.

And the “Plant response rating, Rice (Flood)” value (rice (Oryza sativa))?
Its value is 0.

What about the “Plant response rating, Sedge, Umbrella (Flood)” value [16] of the same compound?
Its value is 0.

What about the “Plant response rating, Ducksalad (Flood)” value [17] of the same compound?
The value was 80.

What about the “Plant response rating, Barnyardgrass (Flood)” value [18] of the same compound?
Its value is 60.

Reference: US10405547B2, “Substituted cyclic amides as herbicides” (FMC Corporation, priority 2015, dated 2019)
